The values that follow come from patent US5460697A, “Method of pulping wood chips with a fungi using sulfite salt-treated wood chips” (priority 1994, dated 1995).

The inhibition is the change of the read-out against control, counted positive when it falls.

Read-outs that look alike come from different tables or passages of the source.

The subject of assay [1] is indigenous microorganisms. The assay is described as follows: Effect of sulfite salts on indigenous microorganisms of unsterilized wood chips (plating). In kind it is cell-based, indigenous microorganisms of unsterilized aspen wood chips. The conditions noted are these: for first test: whether the salt inhibits growth of indigenous microorganisms: pass / not pass; for inhibition at 600 µg/mL / inhibition at 1200 µg/mL: read-out: Inhibition Relative to control; for inhibition of growth of indigenous microorganisms (in words): unsterilized wood chips, overall statement. As to the method: Aspen wood chips (50 g O.D. basis) were soaked in 500 ml of water containing either 0 mg, 781 mg or 1562 mg sodium bisulfite for about 1 hour at room temperature. After soaking, water was drained from the chips.
During the 1 hour soaking the chips soaked up about 31 ml of water. Therefore, the final moisture content of wood was about 61% (wet weight basis) and the final concentration of each chemical on water basis was about 0 μg/ml, 600 μg/ml and 1200 μg/ml.
Three chips were pulled randomly from each flask and plated on potato dextrose agar and tryptic soy agar plates. These plates were incubated at 27° C. for 24 or 27 h and the contaminants were visually observed.
A panel of other sulfur-containing chemicals were analyzed for their ability to inhibit the growth of indigenous microorganisms on unsterilized wood chips in the manner described above. Table 2 describes the various concentrations of these chemicals and the percent inhibition relative to control plates observed.

Assay [2] concerns indigenous microorganisms. The conditions noted are these: Lamar et al. 1990; cited from earlier work.

On to `O=S([O-])([O-])=S.[Na+].[Na+]` [Sodium Thiosulfate], for which the “Inhibition Relative to control” value in assay [1] (600 μg/ml) and in assay [1] (1200 μg/ml) was 0% each time.

On to `O=S([O-])S(=O)[O-].[Na+].[Na+]` [Sodium Hydrosulfite], for which, in assay [1], the “first test: whether the salt inhibits growth of indigenous microorganisms” value is reported as “passed the first test”, the inhibition at 600 µg/mL amounted to 70%, the inhibition at 1200 µg/mL was found to be 100% and the “inhibition of growth of indigenous microorganisms (in words)” value is on record as “successfully inhibited the growth of microorganisms”.

Take `O=S([O-])[O-].[Na+].[Na+]` [Sodium Sulfite]: the “Inhibition Relative to control” value in assay [1] (600 μg/ml) and in assay [1] (1200 μg/ml) was 0% each time. The “first test: whether the salt inhibits growth of indigenous microorganisms” value in assay [1] was “did not pass the test”.

For `CBr` [methyl bromide], in assay [2], the “inhibition of indigenous microorganisms (in words)” value is “inhibit a number of indigenous microorganisms”.

Turning to `O=S(=O)(O)SSS(=O)(=O)O` [Sodium Tetrathionate], in assay [1], the inhibition at 600 µg/mL is 0% and the inhibition at 1200 µg/mL is 0%.

As for `O=S(O)S(=O)(=O)O` [Sodium meta-Bisulfite], the inhibition at 600 µg/mL in assay [1] (600 μg/ml) came to 100%. In addition, in assay [1] (1200 μg/ml), the inhibition at 1200 µg/mL was 100%. Further, in assay [1], the “first test: whether the salt inhibits growth of indigenous microorganisms” value was “passed the first test” and the “inhibition of growth of indigenous microorganisms (in words)” value was “successfully inhibited the growth of microorganisms”.

As to `O=S([O-])O.[K+]` [potassium bisulfite], in assay [1], the “first test: whether the salt inhibits growth of indigenous microorganisms” value was “passed the first test”.

For the molecule `O=S(=O)([O-])[O-].[Na+].[Na+]` [Sodium Sulfate], the “Inhibition Relative to control” value in assay [1] (600 μg/ml) and in assay [1] (1200 μg/ml) was 0% in each case. The “first test: whether the salt inhibits growth of indigenous microorganisms” value in assay [1] is reported as “did not pass the test”.
